# In patent US10287581B2, “Cell penetrating peptides for intracellular delivery of molecules” (AADIGEN, LLC, priority 2011, dated 2019):
# Experiments:
# PC3 xenografted tumors = assay: Tumour growth in PC3-xenografted mice, cyclin B1 siRNA; format: in vivo
# Method: FIGS. 11A-11D: NANOPEP-6 Cyclin B1 siRNA delivery upon topical and systemic injection. Athymic female nude mice were subcutaneously inoculated into the flank with 1×10^6 PC3 (11A and 11B) or HT29 (11C and 11D). Two to three weeks after tumour implant, when tumour size reached about 100 mm^3, animals were treated by intratumoral (11A and 11C) injections, every 3 days, with a solution either saline buffer solution (closed triangle), free Cyc-B1 siRNA (open triangle), control siRNA Cyc-B3 (closed box) or Cyc-B1 siRNA at 5 μg (open circle) and 10 μg (closed circle) complexed with NANOPEP-6 at a 1/20 molar ratio. […] Tumour diameter was measured in two directions at regular intervals using a digital calliper and tumour volume was calculated as length×width×height×0.52. […]
# Tumour diameter was measured in two directions at regular intervals using a digital calliper and tumour volume was calculated as length×width×height×0.52. […] The statistical significance of the results was calculated by Student's t test and p<0.05 considered to be statistically significant. […]
# The potential of NANOPEP-6 (VEPEP6/VEPEP6) to deliver cyclin B1 siRNA in vivo was first evaluated on human prostate carcinoma cell PC3-xenografted mice (FIG. 11A). The effect of local intratumoral administration of NANOPEP-6/siRNA particles (molar ratio 20/1) on the growth of established subcutaneous tumours was evaluated. […]
# cyclin B1 = assay: Cyclin B1 silencing at protein (Western blotting) and mRNA (Quantigen) level; format: cell-based, Human; settings: 200 nM siRNA complexed with VEPEP-6 at a 1/20 ratio
# Method: FIGS. 6A-6C: VEPEP-6 dose response of Cyclin B1 silencing at the protein and mRNA levels on Hela (6A) and HS68 (6B) cells. Stock solution of VEPEP-6/siRNA ([…]) particles were prepared at a molar ratio of 1/20 (siRNA/VEPEP-6), and lower concentrations (from 200 nM to 0.125 nM) were obtained by serial dilution of the stock solution in PBS. HeLa (Panel A) and HS-68 (Panel B) cells (60% confluency) were overlaid with preformed complexes for 30 min, then fresh DMEM supplemented with 10% FCS was added directly to the cells, which were then returned to the incubator for 24 hrs. Cyclin B1 protein levels were determined by Western Blotting using Cdk2 as a control for quantification (white bars). Cyclin B1 mRNA levels were measured 12 hrs after transfection using Quantigen technology (black bars). Mismatched Cyc-B3 siRNA associated with VEPEP-6 (200 nM) and empty VEPEP-6 particles (20 μM) were used as a control. 6C: Dose-response of G2-arrest associated with Cyclin B1 silencing. HeLa (black bars) and HS68 (white bars) cells were treated with increasing concentrations of VEPEP-6/siRNA-Cyc-B1 from 0.25 nM to 20 nM. The cell cycle status was evaluated by FACS analysis. […]
# Cyclin B1 mRNA and protein levels were determined 12 and 24 hrs following transduction, using Quantigen (Panomics Inc.) and Western blotting, respectively. […]
Substance,"effect on tumour growth (PC3 xenografted tumors; controls: naked siRNA 100 (intratumoral or intravenous), carrier alone)",effect on cyclin B1 levels and cell cycle progression (cyclin B1),"inhibition of tumour growth (PC3 xenografted tumors; complexed with NANOPEP-6, 0.5 mg/kg)"
"naked siRNA: Cyc-B1 siRNA without carrier, SEQ ID No: 17/18 (chain 1 GGCGAAGAUCAACAUGGCATT; chain 2 UGCCAUGUUGAUCUUCGCCTT; chemistry not given here)",no significant effect,,
"Cyc-B3: cyclin B1 siRNA harbouring two mismatches, control, SEQ ID No: 19/20 (chain 1 GGUGAAGAUCAGCAUGGCATT; chain 2 UGCCAUGUCGAUCUUCACCTT; chemistry not given here)",,no effect,unable to inhibit tumour growth
